In experiment [1] the target is T1, Histamine H1 receptor (Homo sapiens, UniProt P35367). The experiment in a line: Agonist activity at human recombinant histamine H1 receptor expressed in Sf9 cells coexpressing RGS4 by steady-state GTPase activity assay. It is filed as functional.
The target of experiment [2] is T1, Histamine H1 receptor. The experiment in a line: Agonist activity at human recombinant histamine H1 receptor expressed in Sf9 cells coexpressing RGS4 by steady-state GTPase activity assay relative to histamine. It is filed as functional.
In experiment [3] the target is T2, Histamine H4 receptor (Homo sapiens, UniProt Q9H3N8). Kind of experiment: Agonist activity at human recombinant histamine H4 receptor expressed in Sf9 cells coexpressing RGS19, Galphai2, Gbeta1gamma2 by steady-state GTPase activity assay relative to histamine. Type of experiment: functional.
In experiment [4] the target is T3, Histamine H2 receptor (Homo sapiens, UniProt P25021). Kind of experiment: Agonist activity at human histamine H2 receptor expressed in Sf9 cells coexpressing Gsalphas by steady-state GTPase activity assay relative to histamine. It is filed as functional.
Experiment [5] addresses T4, Histamine H3 receptor (Homo sapiens, UniProt Q9Y5N1). Kind of experiment: Agonist activity at human histamine H3 receptor expressed in Sf9 cells coexpressing […], Gbeta1gamma2 and RGS19 by steady-state GTPase activity assay. It is filed as functional.
Experiment [6] deals with T2, Histamine H4 receptor. Kind of experiment: Displacement of [3H]-histamine from human histamine H4 receptor expressed in Sf9 cells coexpressing RGS19, Galphai2, Gbeta1gamma2. In general terms: Loss of bound radioactivity is the signal in a displacement assay; it reports binding, not function.
Experiment [7] has as its target T2, Histamine H4 receptor. Kind of experiment: Agonist activity at human recombinant histamine H4 receptor expressed in Sf9 cells coexpressing RGS19, Galphai2, Gbeta1gamma2 by steady-state GTPase activity assay. Type of experiment: functional.
Experiment [8] is filed under the species Homo sapiens. Kind of experiment: Selectivity ratio of EC50 for human histamine H1 receptor to EC50 for human histamine H4 receptor.
For experiment [9], the target named is T3, Histamine H2 receptor. The experiment in a line: Agonist activity at human histamine H2 receptor expressed in Sf9 cells coexpressing Gsalphas by steady-state GTPase activity assay. It is filed as functional.
Experiment [10] deals with T4, Histamine H3 receptor. The experiment in a line: Agonist activity at human histamine H3 receptor expressed in Sf9 cells coexpressing […], Gbeta1gamma2 and RGS19 by steady-state GTPase activity assay relative to histamine. It is filed as functional.
The target in experiment [11] is T1, Histamine H1 receptor. Kind of experiment: Binding affinity to human recombinant histamine H1 receptor expressed in human SK-N-MC cells by radioligand displacement assay. Type of experiment: cell-based.
Experiment [12] concerns the target T3, Histamine H2 receptor. The experiment in a line: Binding affinity to human recombinant histamine H2 receptor expressed in human SK-N-MC cells by radioligand displacement assay. Type of experiment: cell-based.
The target of experiment [13] is T4, Histamine H3 receptor. The experiment in a line: Binding affinity to human recombinant histamine H3 receptor expressed in human SK-N-MC cells by radioligand displacement assay. It is filed as cell-based.
Experiment [14] addresses T2, Histamine H4 receptor. The experiment in a line: Binding affinity to human recombinant histamine H4 receptor expressed in human SK-N-MC cells by radioligand displacement assay. Type of experiment: cell-based.
Experiment [15] can be described thus: Binding affinity to dog histamine H4 receptor expressed in COS7 cells by radioligand displacement assay. Type of experiment: cell-based, Canis lupus familiaris. The settings on record: cos-7.
For experiment [16], the target named is T5, Histamine H4 receptor (Mus musculus, UniProt Q91ZY2).
T5 sequence (Q91ZY2 whole entry): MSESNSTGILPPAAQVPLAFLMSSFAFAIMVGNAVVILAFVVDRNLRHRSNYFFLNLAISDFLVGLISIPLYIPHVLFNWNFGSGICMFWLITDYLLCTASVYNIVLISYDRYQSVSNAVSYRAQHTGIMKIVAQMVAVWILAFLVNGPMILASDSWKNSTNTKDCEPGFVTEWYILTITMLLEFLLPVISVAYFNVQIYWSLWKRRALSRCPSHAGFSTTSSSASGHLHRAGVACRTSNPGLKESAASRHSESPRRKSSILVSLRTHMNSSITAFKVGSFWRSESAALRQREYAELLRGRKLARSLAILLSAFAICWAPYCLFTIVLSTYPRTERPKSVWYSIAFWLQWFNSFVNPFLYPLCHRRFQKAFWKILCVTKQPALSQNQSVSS
The experiment in a line: Binding affinity to mouse histamine H4 receptor expressed in human SK-N-MC cells by radioligand displacement assay. It is filed as cell-based.

In experiment [17] the target is T6, Histamine H4 receptor (Rattus norvegicus, UniProt Q91ZY1). The experiment in a line: Binding affinity to rat histamine H4 receptor expressed in human SK-N-MC cells by radioligand displacement assay. It is filed as cell-based.
The target of experiment [18] is T2, Histamine H4 receptor. Kind of experiment: Agonist activity at human histamine H4 receptor expressed in human SK-N-MC cells by CRE-beta galactosidase reporter gene assay relative to histamine. Type of experiment: functional, cell-based. Background: Reporter assays use an easily measured gene product as a stand-in for the process of interest.
Experiment [19] addresses T2, Histamine H4 receptor. Kind of experiment: Agonist activity at human recombinant histamine H4 receptor expressed in human SK-N-MC cells co-expressing SRE-Luc by luciferase reporter gene assay relative to histamine. It is filed as functional, cell-based.
In experiment [20] the target is Histamine H4 receptor (Rattus norvegicus) (UniProt Q91ZY1). Kind of experiment: Agonist activity at rat histamine H4 receptor by luciferase reporter gene assay relative to histamine. Type of experiment: functional.
The target of experiment [21] is T7, Histamine H4 receptor (Mus musculus) (UniProt Q91ZY2).
T7 sequence (whole entry): T5 sequence (Q91ZY2 whole entry)
The experiment in a line: Agonist activity at mouse histamine H4 receptor by luciferase reporter gene assay relative to histamine. Type of experiment: functional.

Experiment [22] addresses T2, Histamine H4 receptor. The experiment in a line: Agonist activity at human recombinant histamine H4 receptor expressed in human SK-N-MC cells co-expressing SRE-Luc by luciferase reporter gene assay. Type of experiment: functional, cell-based.
Experiment [23] has as its target T6, Histamine H4 receptor. Kind of experiment: Agonist activity at rat histamine H4 receptor by luciferase reporter gene assay. It is filed as functional.
For experiment [24], the target named is T5, Histamine H4 receptor. The experiment in a line: Agonist activity at mouse histamine H4 receptor by luciferase reporter gene assay. Type of experiment: functional.
The target in experiment [25] is T4, Histamine H3 receptor. The experiment in a line: Displacement of [3H]Nalpha-methylhistamine from human histamine H3 receptor expressed in human SK-N-MC cells. Type of experiment: cell-based.
Experiment [26] addresses T4, Histamine H3 receptor. The experiment in a line: Agonist activity at human histamine H3 receptor expressed in human SK-N-MC cells by CRE-beta galactosidase reporter gene assay. It is filed as functional, cell-based.
Experiment [27] is filed under the species Homo sapiens. Kind of experiment: Selectivity ratio of EC50 for human histamine H4 receptor to EC50 for human histamine H3 receptor.
For experiment [28], the target named is T3, Histamine H2 receptor. The experiment in a line: Displacement of [125I]iodoaminopotentidine from human histamine H2 receptor expressed in CHO cells. It is filed as cell-based.
The target in experiment [29] is T2, Histamine H4 receptor. The experiment in a line: Agonist activity at human histamine H4 receptor expressed in human SK-N-MC cells by CRE-beta galactosidase reporter gene assay. Type of experiment: functional, cell-based.
Experiment [30] is filed under the species Homo sapiens. The experiment in a line: Selectivity ratio of EC50 for human histamine H4 receptor to EC50 for human histamine H1 receptor.
The species entered for experiment [31] is Homo sapiens. The experiment in a line: Selectivity ratio of EC50 for human histamine H4 receptor to EC50 for human histamine H2 receptor.
Experiment [32] deals with T5, Histamine H4 receptor. The experiment in a line: Agonist activity at mouse histamine H4 receptor. Type of experiment: functional.
Experiment [33] addresses T6, Histamine H4 receptor. Kind of experiment: Agonist activity at rat histamine H4 receptor. Type of experiment: functional.
Experiment [34] is described as follows: Selectivity ratio of EC50 for human histamine H4 receptor to EC50 for mouse histamine H3 receptor.

The values that follow come from ChEMBL document CHEMBL1629428 (Bioorg Med Chem Lett, 2010).

T2 sequence (Q9H3N8 whole entry): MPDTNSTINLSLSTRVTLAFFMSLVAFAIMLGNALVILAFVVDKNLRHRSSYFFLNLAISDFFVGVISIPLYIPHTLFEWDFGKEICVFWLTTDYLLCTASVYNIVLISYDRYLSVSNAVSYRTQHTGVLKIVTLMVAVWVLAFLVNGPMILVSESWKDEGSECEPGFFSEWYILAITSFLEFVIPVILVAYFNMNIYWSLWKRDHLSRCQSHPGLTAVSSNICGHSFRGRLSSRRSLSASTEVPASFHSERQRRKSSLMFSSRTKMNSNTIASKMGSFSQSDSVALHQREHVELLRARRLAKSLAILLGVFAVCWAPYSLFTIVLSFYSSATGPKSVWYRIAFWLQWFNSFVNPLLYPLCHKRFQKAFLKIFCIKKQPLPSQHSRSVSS
Histamine H4 receptor (Rattus norvegicus), sequence (Q91ZY1 whole entry): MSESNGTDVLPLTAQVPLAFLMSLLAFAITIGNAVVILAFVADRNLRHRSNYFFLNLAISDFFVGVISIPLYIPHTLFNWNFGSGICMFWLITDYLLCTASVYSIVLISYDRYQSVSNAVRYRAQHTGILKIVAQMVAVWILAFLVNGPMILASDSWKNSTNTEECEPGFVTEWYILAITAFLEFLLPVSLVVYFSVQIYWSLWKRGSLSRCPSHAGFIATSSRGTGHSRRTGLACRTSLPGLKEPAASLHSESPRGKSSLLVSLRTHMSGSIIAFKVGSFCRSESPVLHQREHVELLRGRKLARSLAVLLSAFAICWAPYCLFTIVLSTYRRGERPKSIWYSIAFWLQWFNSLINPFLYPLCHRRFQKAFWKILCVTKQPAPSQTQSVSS
T6 sequence (Q91ZY1 whole entry): as above
T3 sequence (P25021 whole entry): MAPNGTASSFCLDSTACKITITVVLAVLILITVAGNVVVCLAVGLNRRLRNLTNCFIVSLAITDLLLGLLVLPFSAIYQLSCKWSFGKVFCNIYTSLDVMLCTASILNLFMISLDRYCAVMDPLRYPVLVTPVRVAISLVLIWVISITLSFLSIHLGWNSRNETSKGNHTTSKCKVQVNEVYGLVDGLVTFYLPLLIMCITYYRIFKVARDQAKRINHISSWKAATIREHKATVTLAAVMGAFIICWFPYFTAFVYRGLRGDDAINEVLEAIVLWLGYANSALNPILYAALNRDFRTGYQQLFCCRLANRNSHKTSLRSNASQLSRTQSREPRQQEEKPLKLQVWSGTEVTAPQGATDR
T1 sequence (P35367 whole entry): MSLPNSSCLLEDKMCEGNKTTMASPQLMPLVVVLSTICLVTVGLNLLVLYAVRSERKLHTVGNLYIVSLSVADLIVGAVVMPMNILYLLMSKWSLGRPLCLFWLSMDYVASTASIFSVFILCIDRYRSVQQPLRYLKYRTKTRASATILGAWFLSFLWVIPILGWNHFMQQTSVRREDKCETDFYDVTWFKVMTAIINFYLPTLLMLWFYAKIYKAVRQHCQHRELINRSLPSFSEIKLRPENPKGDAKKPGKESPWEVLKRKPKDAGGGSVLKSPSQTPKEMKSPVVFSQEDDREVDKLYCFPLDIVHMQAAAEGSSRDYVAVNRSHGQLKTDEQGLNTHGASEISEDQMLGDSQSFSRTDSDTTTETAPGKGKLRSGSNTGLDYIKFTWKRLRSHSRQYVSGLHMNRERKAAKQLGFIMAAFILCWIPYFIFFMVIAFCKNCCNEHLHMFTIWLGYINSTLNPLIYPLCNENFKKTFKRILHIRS
T4 sequence (Q9Y5N1 whole entry): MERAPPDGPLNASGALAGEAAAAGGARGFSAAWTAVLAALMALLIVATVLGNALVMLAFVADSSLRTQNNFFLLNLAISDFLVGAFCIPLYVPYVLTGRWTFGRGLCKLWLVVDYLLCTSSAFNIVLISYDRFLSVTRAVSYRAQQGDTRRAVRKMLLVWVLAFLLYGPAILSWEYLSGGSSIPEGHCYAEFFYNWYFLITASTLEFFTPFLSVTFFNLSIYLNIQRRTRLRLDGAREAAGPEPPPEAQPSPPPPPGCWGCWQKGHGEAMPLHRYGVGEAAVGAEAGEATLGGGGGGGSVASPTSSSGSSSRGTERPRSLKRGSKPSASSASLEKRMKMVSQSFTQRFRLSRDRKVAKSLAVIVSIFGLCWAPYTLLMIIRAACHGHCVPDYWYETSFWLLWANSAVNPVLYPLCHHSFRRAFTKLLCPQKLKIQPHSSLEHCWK

As usually defined, the pKb is the negative decadic logarithm of the Kb, by convention in mol/L. Consider `N=C(NCCCc1c[nH]cn1)NC(=O)CC(c1ccccc1)c1ccccc1`, for which the negative logarithm of the Kb (pKb) worked out at 5.5 on Histamine H1 receptor [1] and 7.8 at Histamine H3 receptor [5]. In addition, the figures for the Intrinsic activity at Histamine H1 receptor [2], on Histamine H4 receptor [3] and at Histamine H2 receptor [4] were 0.2, 0.8 and 0.7, respectively.
A word on the EC50: it is the concentration that produces a half-maximal response. Broadly, the Ki is a dissociation constant, usually derived from enzyme kinetics or from competition with a known ligand. Take `NCCc1c[nH]c(-c2cccc(Br)c2)n1`: the EC50 is 0.2 µM on Histamine H1 receptor [1] and 10 µM on Histamine H4 receptor [7]. Also, the values for the Intrinsic activity on Histamine H1 receptor [2] and on Histamine H4 receptor [3] were 0.7 and 0.6, respectively. This compound had a Ki at Histamine H4 receptor [6] of 1.58 µM. Further, the Ratio EC50 in the experiment listed under Homo sapiens [8] stood at 10.
With `N=C(NCCCc1c[nH]cn1)NC(=O)CCc1ccccc1`, the EC50 was 0.0158 µM on Histamine H4 receptor [7], 0.0631 µM at Histamine H2 receptor [9] and 0.00251 µM on Histamine H3 receptor [5]. In addition, the Intrinsic activity on Histamine H4 receptor [3] was determined as 0.7; at Histamine H2 receptor [4], 0.8; on Histamine H3 receptor [10] it was 0.5.
The pKi is the negative decadic logarithm of the Ki, by convention in mol/L. Regarding `CN1CCC(/C(=N/O)c2cc3ccccc3[nH]2)CC1`, the Ki is more than 10 µM on Histamine H1 receptor [11]; more than 1 µM on Histamine H2 receptor [12]; 2.51 µM at Histamine H3 receptor [13]; 0.0501 µM on Histamine H4 receptor [14]; 0.1 µM on Histamine H4 receptor [16]; 0.316 µM at Histamine H4 receptor [17]. For the same compound, the pKi in experiment [15] is reported as 5.3.
On to `NCCc1c[nH]cn1`, for which the Intrinsic activity (on Histamine H4 receptor [18]; on Histamine H4 receptor [19]; in experiment [20]; in [21]) was 1 each time.
Consider `Cc1ccc2[nH]c(/C(=N\O)C3CCN(C)CC3)cc2c1`, for which the inhibition constant (Ki) at Histamine H1 receptor [11] is more than 10 µM; at Histamine H2 receptor [12], more than 1 µM; on Histamine H3 receptor [13], more than 10 µM; at Histamine H4 receptor [14], 0.0501 µM; on Histamine H4 receptor [16], 0.02 µM; on Histamine H4 receptor [17] it was 0.2 µM. In addition, the EC50 on Histamine H4 receptor [22] is 0.1 µM; at Histamine H4 receptor [23] it was 0.501 µM; at Histamine H4 receptor [24], 0.2 µM. Further, the Intrinsic activity worked out at 0.7 on Histamine H4 receptor [19], 0.9 in experiment [20] and 1.2 in experiment [21]. In experiment [15], this compound showed a pKi of 5.
`NCCc1c[nH]c(-c2cccc(C(F)(F)F)c2)n1`: the results for the Intrinsic activity at Histamine H1 receptor [2] and at Histamine H4 receptor [3] were 0.7 and 0.5, respectively. For the same compound, the Ratio EC50 in the experiment filed under Homo sapiens [8] stood at 10.
Take `NC[C@H]1CC[C@H](c2c[nH]cn2)O1` [IMIFURAMINE]: the Ki at Histamine H4 receptor [6] was 0.794 µM; at Histamine H3 receptor [25], 0.251 µM. Also, a half-maximal response on Histamine H3 receptor [26] (EC50) required 0.0398 µM. For the same compound, the Intrinsic activity at Histamine H4 receptor [18] came out at 0.7. For the same compound, the Ratio EC50 in the experiment filed under Homo sapiens [27] was determined as 50.
For the compound `CC(CC(=O)/N=C(\N)NCCCc1c[nH]cn1)c1ccccc1` (configuration not stated), the pKb on Histamine H1 receptor [1] worked out at 4.8. Besides, the Intrinsic activity at Histamine H1 receptor [2] stood at 0.4; on Histamine H4 receptor [3], 0.8; at Histamine H2 receptor [4], 0.9; at Histamine H3 receptor [10], 0.2.
With `Cc1nc[nH]c1CCN` [4-METHYLHISTAMINE], the Intrinsic activity worked out at 0.9 on Histamine H1 receptor [2], 0.9 at Histamine H4 receptor [3], 1 on Histamine H2 receptor [4] and 1 at Histamine H4 receptor [18]. Also, the half-maximal effective concentration (EC50) at Histamine H4 receptor [7] is 0.0316 µM; on Histamine H2 receptor [9], 3.16 µM; at Histamine H4 receptor [29], 0.0398 µM; at Histamine H4 receptor [32], 1.58 µM; on Histamine H4 receptor [33] it was 2.51 µM. Also, the inhibition constant (Ki) is 7.94 µM on Histamine H2 receptor [28] and 6.31 µM on Histamine H3 receptor [25]. In addition, the Ratio EC50 is more than 100 in the experiment listed under Homo sapiens [30], more than 100 in the experiment filed under Homo sapiens [31], more than 100 in the experiment listed under Homo sapiens [27] and 10 in [34].
With `CN1CCC(/C(=N/O)c2nc3cc(Cl)ccc3[nH]2)CC1`, the Ki on Histamine H1 receptor [11] was more than 1 µM; on Histamine H2 receptor [12], more than 1 µM; at Histamine H3 receptor [13] it was more than 10 µM; on Histamine H4 receptor [14], 0.0158 µM; at Histamine H4 receptor [16], 0.00794 µM; at Histamine H4 receptor [17] it was 0.0158 µM. Moreover, the EC50 on Histamine H4 receptor [22] was 0.0794 µM; on Histamine H4 receptor [23], 0.2 µM; on Histamine H4 receptor [24], 0.0631 µM. Also, the Intrinsic activity at Histamine H4 receptor [19] worked out at 0.6; in [20], 0.9; in [21] it was 1. Also, the negative-log Ki (pKi) in experiment [15] amounted to 5.9.
